What was measured:
Assay type in all cases: functional, Homo sapiens
Design in all cases: dose or concentration left out as unconfirmed
Colon cancer organoid [1] = test: Optimized Dual-Glo assay to identify co-culture induced drug vulnerabilities using donated chemical probes and chemogenomics kinase set in O06 CRC organoid and F06 CAF mono and co-culture. […] Cell viability is reported both mono and co-culture models.
Colon cancer organoid [2] = test: Optimized Dual-Glo assay to identify co-culture induced drug vulnerabilities using donated chemical probes and chemogenomics kinase set in O20 CRC organoid and F20 CAF mono and co-culture. […] Cell viability is reported both mono and co-culture models.
Colon cancer organoid [3] = test: Optimized Dual-Glo assay to identify co-culture induced drug vulnerabilities using donated chemical probes and chemogenomics kinase set in O14 CRC organoid and F14 CAF mono and co-culture. […] Cell viability is reported both mono and co-culture models.
[4] = Culture type Co-Culture, Transduced with Lucferase2-P2A-EGFP lentivirus
[5] = Culture type Co-Culture, Transduced with Renilla-dsRed lentivirus
[6] = Culture type Mono-Culture, Transduced with Lucferase2-P2A-EGFP lentivirus
[7] = Culture type Mono-Culture, Transduced with Renilla-dsRed lentivirus

SMILES	Cell Viability (Colon cancer organoid [1]; [4])	Cell Viability (Colon cancer organoid [1]; [5])	Cell Viability (Colon cancer organoid [1]; [6])	Cell Viability (Colon cancer organoid [1]; [7])	Cell Viability (Colon cancer organoid [2]; [4])	Cell Viability (Colon cancer organoid [2]; [5])	Cell Viability (Colon cancer organoid [2]; [6])	Cell Viability (Colon cancer organoid [2]; [7])	Cell Viability (Colon cancer organoid [3]; [4])	Cell Viability (Colon cancer organoid [3]; [5])	Cell Viability (Colon cancer organoid [3]; [6])	Cell Viability (Colon cancer organoid [3]; [7])
Cc1c(NC(=O)c2cc(C(N)=O)nc3cc(F)ccc23)c(C(F)(F)F)nn1Cc1ccc(C#N)cc1 [BAY-876]	9.2808%	424.118%	4.84%	74.218%	13.842%	190.785%	15.2674%	77.5911%	22.1239%	120.557%	31.4127%	63.4994%
CNC(=O)c1ccc(Nc2ncc(C(F)(F)F)c(NCc3nccnc3N(C)S(C)(=O)=O)n2)cc1 [DEFACTINIB]	127.858%	116.047%	102.967%	60.766%	57.0475%	79.7534%	66.5234%	63.7293%	83.442%	104.135%	42.8527%	104.257%
COCc1nc2cnc3cc(-c4c(C)noc4C)c(OC[C@H]4CCNC4)cc3c2n1[C@H](C)c1ccccc1 [GSK778]	81.063%	183.714%	53.5183%	186.322%	27.5933%	143.906%	31.8546%	105.119%	59.3767%	280.444%	39.3913%	175.876%
CN1C(=O)c2sccc2N(C)c2nc(Nc3ccc(S(N)(=O)=O)cc3)ncc21	23.972%	57.2364%	18.6697%	40.4928%	36.1991%	84.1947%	15.0082%	80.0783%	32.5942%	86.9407%	37.7546%	55.4366%
OCCn1cc(-c2cnc3nnn(Cc4ccc5ncccc5c4)c3n2)cn1 [PF-04217903]	88.0795%	107.387%	104.073%	94.3108%	121.611%	97.2338%	113.154%	101.829%	71.8183%	123.95%	91.8486%	91.0833%
COc1ccccc1C(=O)Nc1cc2c(cc1N1CCNCC1C)n(C)c(=O)n2C (centres undefined)	112.155%	138.916%	92.5462%	113.336%	130.677%	107.173%	124.631%	104.05%	109.979%	135.305%	100.033%	95.8386%
CC(C)C(=O)Nc1n[nH]c2cc(-c3cccc(NS(=O)(=O)C4CC4)c3)ccc12	155.711%	134.333%	107.561%	124.696%	85.5363%	102.387%	113.542%	124.62%	100.589%	100.218%	136.967%	94.5263%
CO[C@H]1CC[C@H](CNc2ccc(S(=O)(=O)NC(=O)c3ccc(N4CCN(CC5=C(c6ccc(Cl)cc6)CC(C)(C)CC5)CC4)cc3Oc3cnc4[nH]ccc4c3)cc2[N+](=O)[O-])CC1 [A-1211212]	8.693%	108.861%	18.6642%	86.311%	16.3832%	159.244%	32.5112%	71.0169%	35.4826%	44.6988%	55.1244%	87.836%
COc1cc(C)c(Sc2cnc(NC(=O)c3ccc(CNC(C)C(C)(C)C)cc3)s2)cc1C(=O)N1CCN(C(C)=O)CC1 (centres undefined)	97.8632%	73.4932%	75.5351%	54.8582%	92.0383%	97.5626%	38.3034%	78.8109%	66.3781%	81.9892%	56.9877%	80.9779%
CCCOc1ccn2c(C(C)=O)cc(-c3cccc(OC)c3)c2c1	110.241%	146.669%	131.845%	119.651%	76.4747%	110.044%	113.084%	103.998%	84.3946%	120.115%	124.987%	98.1469%
CC(C)(O)c1cncc(-c2nc3ccc(F)cc3n2C2CC2)c1 [MSD-CYP11B2]	83.611%	134.058%	92.3684%	91.4752%	80.0796%	128.543%	82.8695%	83.5223%	60.604%	97.9336%	96.2618%	98.7246%
CCOCCn1cc(C(=O)Nc2ccc(-n3nc(-c4cccnc4)cc3C(F)(F)F)cn2)ccc1=O [BI 1935]	92.9458%	113.636%	108.149%	105.749%	76.3275%	148.205%	94.4512%	98.9549%	119.66%	103.733%	123.828%	100.697%
c1ccc(C2CCN(c3cnc4c(N5CCOCC5)nccn34)CC2)cc1	98.2025%	98.7191%	229.272%	111.241%	90.2822%	108.246%	142.742%	115.191%	111.149%	110.22%	155.031%	89.751%
COc1cc(N(C)c2ccnc3ccc(C(F)(F)F)cc23)cc(OC)c1OC	161.309%	161.036%	102.201%	116.943%	76.7382%	110.267%	123.073%	118.477%	114.205%	95.5273%	120.439%	84.9016%
Cn1nc(C(F)(F)F)cc1-c1cnc(N2CCc3cc(S(=O)(=O)Nc4c(F)cc(Cl)cc4F)cc(N4CCCC4=O)c32)nc1 [TP-020]	112.159%	131.656%	120.125%	102.548%	86.7802%	95.2287%	142.794%	105.743%	84.372%	107.562%	84.9301%	79.7114%
CN(C)C(=O)Cn1cc(-c2ccc(-c3nnc4ccccn34)cc2)cn1	105.212%	110.192%	69.5948%	88.4504%	165.558%	52.6743%	140.63%	85.2439%	93.0602%	86.1026%	137.129%	87.3202%
CCC(F)(F)c1cc(N2CCC(S(C)(=O)=O)CC2)nc2sc(C(N)=O)c(N)c12 [BI-605906]	93.6384%	92.3898%	93.147%	102.109%	178.631%	81.0914%	102.635%	91.2338%	108.411%	90.1855%	95.9322%	83.0517%
